Laboratory results: patent publication US11452731B2, “Method of treating and preventing loss of cognition” (ENDORECHERCHE, INC., priority 2009, dated 2022)
Values joined by “and” are separate entries in the source; they are usually repeats but may differ in a detail not shown here. Equal entries are not always repeated.

Assay: Clinical trial ERC-205: DHEA 50 mg daily versus placebo on hot flushes in postmenopausal women (Example 10)
Format: in vivo
Settings: for NUMBER OF MODERATE TO SEVERE HOT FLUSHES PER WEEK (MEAN) / WEIGHTED SEVERITY SCORE OF HOT FLUSHES PER WEEK (MEAN) / NUMBER OF ALL HOT FLUSHES PER WEEK (MEAN): 50 mg, strata ≥71 hot flushes per week at screening; for Number of all hot flushes per week, MEAN / Number of moderate to severe hot flushes per week, MEAN / Weighted severity score of hot flushes per week, MEAN / Mean change from baseline: Frequency of all HF / Mean change from baseline: Frequency of moderate-severe HF / Mean change from baseline: Weighted severity score of HF: DHEA 50 mg daily; for number of all hot flushes per week: women having more than 70 mild, moderate plus severe hot flushes
Experimental: Postmenopausal women experiencing moderate or severe hot flushes per week (as determined by a two week diary) were randomized to receive a daily dose of either placebo or 50 mg DHEA. Fifty evaluable participants (25 patients per arm) were treated for four months with a daily assessment of hot flushes recorded in a diary completed by each participant.
Postmenopausal women aged 40 to 70 years with moderate or severe hot flushes per week, as confirmed by a two-week screening hot flush diary were enrolled after signing informed consent. The protocol was approved by the Institutional Review Board (IRB) of Le Centre Hospitalier de l'Université Laval and by Health Canada.
The primary endpoint was the change from Baseline in the weekly frequency of moderate to severe hot flushes at Week 16, after four months of treatment. The objectives also included the change from Baseline in the weekly frequency of all hot flushes and the change from Baseline in the weekly weighted severity score.
The response endpoint is the patient's paper diary which was filled in daily to specify the number and type of hot flushes as follows:
The hot flush diary began as a Screening diary for two weeks prior to randomization whereby patients had to complete the diary daily, recording the number and severity of hot flushes. The patients had to record an average of 50 or more moderate or severe hot flushes per week over the two-week period to be eligible (i.e., at least 100 hot flushes documented on the two week Screening diary).
Once randomized, the patient completed eight, two-week hot flush diaries upon beginning study medication. The diaries had to be filled out on a daily basis. The first diary was completed over the first two weeks and be returned on the two week visit. The second two-week diary was completed over the next two weeks of the first four week treatment period and was returned at the four week visit. At 4, 8, 12 and 16 week visits, two two-week diaries for hot flushes were collected.

[1] = Screening (mean of 2 w), baseline
[2] = women having 71 or more hot flushes per week at screening
[3] = women having between 50 and 70 per week

## C[C@]12CC[C@H](O)CC1=CC[C@@H]1[C@@H]2CC[C@]2(C)C(=O)CC[C@@H]12 [DHEA, dehydroepiandrosterone]
Week 14
  NUMBER OF MODERATE TO SEVERE HOT FLUSHES PER WEEK (MEAN): 32.0
  WEIGHTED SEVERITY SCORE OF HOT FLUSHES PER WEEK (MEAN): 96.6
  Number of all hot flushes per week, MEAN: 37.6
  Number of moderate to severe hot flushes per week, MEAN: 33.3
  Weighted severity score of hot flushes per week, MEAN: 90.9
Week 15
  NUMBER OF ALL HOT FLUSHES PER WEEK (MEAN): 38.8
  NUMBER OF MODERATE TO SEVERE HOT FLUSHES PER WEEK (MEAN): 34.4
  WEIGHTED SEVERITY SCORE OF HOT FLUSHES PER WEEK (MEAN): 103.6
  Number of all hot flushes per week, MEAN: 37.5
  Number of moderate to severe hot flushes per week, MEAN: 34.0
  Weighted severity score of hot flushes per week, MEAN: 91.8
Week 16
  NUMBER OF ALL HOT FLUSHES PER WEEK (MEAN): 36.3
  NUMBER OF MODERATE TO SEVERE HOT FLUSHES PER WEEK (MEAN): 31.6
  WEIGHTED SEVERITY SCORE OF HOT FLUSHES PER WEEK (MEAN): 95.2
  Mean change from baseline: Frequency of all HF: −39.8
  Mean change from baseline: Frequency of moderate-severe HF: −38.1
  Mean change from baseline: Weighted severity score of HF: −99.1
  Number of all hot flushes per week, MEAN: 36.0±5.7 and 36.0
  Number of moderate to severe hot flushes per week, MEAN: 32.2±5.8 and 32.2
  Weighted severity score of hot flushes per week, MEAN: 87.2±15.8 and 87.2
[1]
  Number of all hot flushes per week, MEAN: 75.5±4.4 and 75.7
  Number of moderate to severe hot flushes per week, MEAN: 70.7±4.5 and 70.7
  Weighted severity score of hot flushes per week, MEAN: 187.1±13.9 and 187.1
Week 1
  Number of all hot flushes per week, MEAN: 64.2
  Number of moderate to severe hot flushes per week, MEAN: 58.6
  Weighted severity score of hot flushes per week, MEAN: 156.0
Week 2
  Number of all hot flushes per week, MEAN: 56.4
  Number of moderate to severe hot flushes per week, MEAN: 51.0
  Weighted severity score of hot flushes per week, MEAN: 137.5
Week 3
  Number of all hot flushes per week, MEAN: 54.6
  Number of moderate to severe hot flushes per week, MEAN: 49.1
  Weighted severity score of hot flushes per week, MEAN: 132.5
Week 4
  Mean change from baseline: Frequency of all HF: −20.4
  Mean change from baseline: Frequency of moderate-severe HF: −20.6
  Mean change from baseline: Weighted severity score of HF: −51.4
  Number of all hot flushes per week, MEAN: 55.3±5.8 and 55.3
  Number of moderate to severe hot flushes per week, MEAN: 50.1±5.7 and 50.1
  Weighted severity score of hot flushes per week, MEAN: 135.7
Week 5
  Number of all hot flushes per week, MEAN: 49.8
  Number of moderate to severe hot flushes per week, MEAN: 44.4
  Weighted severity score of hot flushes per week, MEAN: 120.9
Week 6
  Number of all hot flushes per week, MEAN: 47.9
  Number of moderate to severe hot flushes per week, MEAN: 43.0
  Weighted severity score of hot flushes per week, MEAN: 115.2
Week 7
  Number of all hot flushes per week, MEAN: 44.5
  Number of moderate to severe hot flushes per week, MEAN: 39.6
  Weighted severity score of hot flushes per week, MEAN: 108.3
Week 8
  Mean change from baseline: Frequency of all HF: −31.0
  Mean change from baseline: Frequency of moderate-severe HF: −30.1
  Mean change from baseline: Weighted severity score of HF: −76.9
  Number of all hot flushes per week, MEAN: 44.7±6.3 and 44.7
  Number of moderate to severe hot flushes per week, MEAN: 40.2±6.1 and 40.2
  Weighted severity score of hot flushes per week, MEAN: 109.4
Week 9
  Number of all hot flushes per week, MEAN: 44.3
  Number of moderate to severe hot flushes per week, MEAN: 39.6
  Weighted severity score of hot flushes per week, MEAN: 106.5
Week 10
  Number of all hot flushes per week, MEAN: 43.1
  Number of moderate to severe hot flushes per week, MEAN: 38.6
  Weighted severity score of hot flushes per week, MEAN: 104.5
Week 11
  Number of all hot flushes per week, MEAN: 40.9
  Number of moderate to severe hot flushes per week, MEAN: 36.0
  Weighted severity score of hot flushes per week, MEAN: 98.2
Week 12
  Mean change from baseline: Frequency of all HF: −36.2
  Mean change from baseline: Frequency of moderate-severe HF: −35.6
  Mean change from baseline: Weighted severity score of HF: −93.6
  Number of all hot flushes per week, MEAN: 39.5±5.9 and 39.5
  Number of moderate to severe hot flushes per week, MEAN: 34.7±5.8 and 34.7
  Weighted severity score of hot flushes per week, MEAN: 92.7
Week 13
  Number of all hot flushes per week, MEAN: 37.5
  Number of moderate to severe hot flushes per week, MEAN: 33.2
  Weighted severity score of hot flushes per week, MEAN: 90.1
All women, week 16 (Table 18)
  reduction of the weighted severity score: 99.1±15.6
At 16 weeks
  decrease in weighted severity score: 53.4%
  higher efficacy of DHEA than placebo on weighted severity score: 3.0 fold
Screening to week 16
  decrease in frequency of all hot flushes: 52.4%
  decrease in number of moderate to severe hot flushes: 54.5%
[2]
  decrease in moderate to severe hot flushes: 64.3%
  greater inhibition by DHEA than placebo: 65%
Women having 71 or more hot flushes per week at screening, after DHEA treatment
  mean number of moderate to severe hot flushes per week: 31.6±11.6
Women having 71 or more hot flushes per week at screening, screening value
  mean number of moderate to severe hot flushes per week: 88.5±7.1
Women having between 50 and 70 hot flushes per week
  decrease in weighted severity score: 43.5%
Women having between 50 and 70 hot flushes per week, screening
  weighted severity score: 144.3±6.7
Women having between 50 and 70 hot flushes per week, week 16
  weighted severity score: 81.6±13.6
[3]
  decrease in moderate to severe hot flushes: 43.3%
  inhibition by DHEA over the placebo effect: 43%
Women having between 50 and 70 per week, prescreening
  number of moderate to severe hot flushes per week: 56.7±1.3
Women having between 50 and 70 per week, week 6 as printed
  number of moderate to severe hot flushes per week: 32.7±6.2
Women having more than 70 hot flushes
  decrease in number of all hot flushes: 60%
Women having more than 70 hot flushes per week
  decrease in weighted severity score: 61.6%
Women having more than 70 hot flushes per week, screening
  weighted severity score: 241.6±21.1
Women having more than 70 hot flushes per week, week 16
  weighted severity score: 95.2±34.3
prescreening
  number of all hot flushes per week: 91.0±7.0
Week 16
  number of all hot flushes per week: 36.3±11.5
Women having the largest number of hot flushes of all degrees of severity
  greater efficacy of DHEA than placebo: 50%
